Assay results: US20030186997A1, “2,5-Dihydro-pyrazolo[3,4-d]pyrimidin-4-ones with an anticonsulsive action and methods for producing the same” (priority 2000, published 2003)

melting point | Compound
188 to 189 °C | COc1ccccc1Cn1cnc2n[nH]cc2c1=O [Compound 7, 5-(2-methoxybenzyl)-2,5-dihydropyrazolo[3,4-d]-pyrimidin-4-one]
199 to 200 °C | Cc1cc(C)c(Cn2cnc3n[nH]cc3c2=O)c(C)c1 [Compound 9, 5-(2,4,6-trimethylbenzyl)-2,5-dihydropyrazolo[3,4-d]-pyrimidin-4-one]
224 to 225 °C | O=c1c2c[nH]nc2ncn1Cc1ccccn1 [Compound 10, 5-(2-pyridinylmethyl)-2,5-dihydropyrazolo[3,4-d]-pyrimidin-4-one]
200 to 201 °C | O=c1c2c[nH]nc2ncn1Cc1cccnc1 [Compound 11, 5-(3-pyridinylmethyl)-2,5-dihydropyrazolo[3,4-d]-pyrimidin-4-one]
220 to 221 °C | O=c1c2c[nH]nc2ncn1Cc1ccncc1 [Compound 12, 5-(4-pyridinylmethyl)-2,5-dihydropyrazolo[3,4-d]-pyrimidin-4-one]
114 to 117 °C | Cc1cccc(Cn2cnc3nn(C)cc3c2=O)c1 [Compound 15, 5-(3-methylbenzyl)-2-methyl-2,5-dihydropyrazolo[3,4-d]-pyrimidin-4-one]
224 to 226 °C | Cc1ccc(Cn2cnc3nn(C)cc3c2=O)cc1 [Compound 16, 5-(4-methylbenzyl)-2-methyl-2,5-dihydropyrazolo[3,4-d]-pyrimidin-4-one]
205 to 206 °C | Cn1cc2c(=O)n(Cc3ccccc3Cl)cnc2n1 [Compound 18, 5-(2-chlorobenzyl)-2-methyl-2,5-dihydropyrazolo[3,4-d]-pyrimidin-4-one]
215 to 217 °C | Cn1cc2c(=O)n(Cc3ccccc3C(F)(F)F)cnc2n1 [Compound 20, 5-(2-trifluoromethylbenzyl)-2-methyl-2,5-dihydropyrazolo[3,4-d]pyrimidin-4-one]
211 to 212 °C | Cn1cc2c(=O)n(Cc3ccc(C(F)(F)F)cc3)cnc2n1 [Compound 22, 5-(4-trifluoromethylbenzyl)-2-methyl-2,5-dihydropyrazolo[3,4-d]pyrimidin-4-one]
216 to 218 °C | Cn1cc2c(=O)n(Cc3c(F)cccc3Cl)cnc2n1 [Compound 23, 5-(2-chloro-6-fluorobenzyl)-2-methyl-2,5-dihydropyrazolo[3,4-d]pyrimidin-4-one]
189 to 191 °C | Cn1cc2c(=O)n(Cc3ccccc3-c3ccccc3)cnc2n1 [Compound 24, 5-(2-phenylbenzyl)-2-methyl-2,5-dihydropyrazolo[3,4-d]-pyrimidin-4-one]
200 to 202 °C | Cn1cc2c(=O)n(Cc3c(Cl)cccc3Cl)cnc2n1 [Compound 25, 5-(2,6-dichlorobenzyl)-2-methyl-2,5-dihydro-pyrazolo[3,4-d]pyrimidin-4-one]
220 to 222 °C | Cn1cc2c(=O)n(Cc3ccccc3[N+](=O)[O-])cnc2n1 [Compound 26, 5-(2-nitrobenzyl)-2-methyl-2,5-dihydropyrazolo[3,4-d]-pyrimidin-4-one]
209 to 210 °C | Cn1cc2c(=O)n(Cc3ccc(Cl)cc3)cnc2n1 [Compound 27, 5-(4-chlorobenzyl)-2-methyl-2,5-dihydropyrazolo[3,4-d]-pyrimidin-4-one]
218 to 219 °C | Cn1cc2c(=O)n(Cc3ccc(Cl)cc3Cl)cnc2n1 [Compound 28, 5-(2,4-dichlorobenzyl)-2-methyl-2,5-dihydropyrazolo[3,4-d]pyrimidin-4-one]
187 to 190 °C | Cn1cc2c(=O)n(Cc3ccccc3I)cnc2n1 [Compound 29, 5-(2-iodobenzyl)-2-methyl-2,5-dihydropyrazolo[3,4-d]-pyrimidin-4-one]
198 to 199 °C | Cn1cc2c(=O)n(Cc3ccccc3C#N)cnc2n1 [Compound 30, 5-(2-cyanobenzyl)-2-methyl-2,5-dihydropyrazolo[3,4-d]-pyrimidin-4-one]
216 to 217 °C | Cn1cc2c(=O)n(Cc3ccc(F)cc3)cnc2n1 [Compound 31, 5-(4-fluorobenzyl)-2-methyl-2,5-dihydropyrazolo[3,4-d]-pyrimidin-4-one]
182 to 184 °C | Cc1cc(C)c(Cn2cnc3nn(C)cc3c2=O)c(C)c1 [Compound 32, 5-(2,4,6-trimethylbenzyl)-2-methyl-2,5-dihydropyrazolo[3,4-d]pyrimidin-4-one]
203 to 205 °C | Cn1cc2c(=O)n(Cc3ccccn3)cnc2n1 [Compound 33, 5-(2-pyridinylmethyl)-2-methyl-2,5-dihydropyrazolo[3,4-d]-pyrimidin-4-one]
192 to 195 °C | Cn1cc2c(=O)n(Cc3ccncc3)cnc2n1 [Compound 34, 5-(4-pyridinylmethyl)-2-methyl-2,5-dihydropyrazolo[3,4-d]-pyrimidin-4-one]
207 to 209 °C | CCn1cc2c(=O)n(Cc3c(F)cccc3Cl)cnc2n1 [Compound 35, 5-(2-chloro-6-fluorobenzyl)-2-ethyl-2,5-dihydropyrazolo[3,4-d]pyrimidin-4-one]

melting point | Compound
178 to 179 °C | CCn1cc2c(=O)n(Cc3ccc(C)cc3)cnc2n1 [Compound 36, 5-(4-methylbenzyl)-2-ethyl-2,5-dihydropyrazolo[3,4-d]-pyrimidin-4-one]
190 to 191 °C | CCn1cc2c(=O)n(Cc3ccccn3)cnc2n1 [Compound 38, 5-(2-pyridinylmethyl)-2-ethyl-2,5-dihydropyrazolo[3,4-d]-pyrimidin-4-one]
163 to 165 °C | CCCn1cc2c(=O)n(Cc3c(F)cccc3Cl)cnc2n1 [Compound 39, 5-(2-chloro-6-fluorobenzyl)-2-propyl-2,5-dihydropyrazolo[3,4-d]pyrimidin-4-one]
157 to 158 °C | CCCn1cc2c(=O)n(Cc3ccc(C)cc3)cnc2n1 [Compound 40, 5-(4-methylbenzyl)-2-propyl-2,5-dihydropyrazolo[3,4-d]-pyrimidin-4-one]
167 to 168 °C | CCCn1cc2c(=O)n(Cc3c(F)cccc3F)cnc2n1 [Compound 41, 5-(2,6-difluorobenzyl)-2-propyl-2,5-dihydropyrazolo[3,4-d]pyrimidin-4-one]
179 to 181 °C | CCCn1cc2c(=O)n(Cc3ccccn3)cnc2n1 [Compound 42, 5-(2-pyridinylmethyl)-2-propyl-2,5-dihydropyrazolo[3,4-d]-pyrimidin-4-one]
145 to 147 °C | Cc1ccc(Cn2cnc3nn(C(C)C)cc3c2=O)cc1 [Compound 44, 5-(4-methylbenzyl)-2-isopropyl-2,5-dihydropyrazolo[3,4-d]-pyrimidin-4-one]
156 to 157 °C | CC(C)n1cc2c(=O)n(Cc3c(F)cccc3F)cnc2n1 [Compound 45, 5-(2,6-difluorobenzyl)-2-isopropyl-2,5-dihydropyrazolo[3,4-d]pyrimidin-4-one]
163 to 164 °C | CC(C)n1cc2c(=O)n(Cc3ccccn3)cnc2n1 [Compound 46, 5-(2-pyridinylmethyl)-2-isopropyl-2,5-dihydropyrazolo[3,4-d]pyrimidin-4-one]
156 to 157 °C | CCCCn1cc2c(=O)n(Cc3c(F)cccc3Cl)cnc2n1 [Compound 47, 5-(2-chloro-6-fluorobenzyl)-2-butyl-2,5-dihydropyrazolo[3,4-d]pyrimidin-4-one]
146 to 147 °C | CCCCn1cc2c(=O)n(Cc3ccc(C)cc3)cnc2n1 [Compound 48, 5-(4-methylbenzyl)-2-butyl-2,5-dihydropyrazolo[3,4-d]-pyrimidin-4-one]
151 to 152 °C | CCCCn1cc2c(=O)n(Cc3c(F)cccc3F)cnc2n1 [Compound 49, 5-(2,6-difluorobenzyl)-2-butyl-2,5-dihydropyrazolo[3,4-d]-pyrimidin-4-one]
195 to 197 °C | O=c1c2cn(-c3ccccc3)nc2ncn1Cc1c(F)cccc1Cl [Compound 50, 5-(2-chloro-6-fluorobenzyl)-2-phenyl-2,5-dihydropyrazolo[3,4-d]pyrimidin-4-one]
182 to 183 °C | Cc1ccc(Cn2cnc3nn(-c4ccccc4)cc3c2=O)cc1 [Compound 51, 5-(4-methylbenzyl)-2-phenyl-2,5-dihydropyrazolo[3,4-d]-pyrimidin-4-one]
189 to 191 °C | O=c1c2cn(-c3ccccc3)nc2ncn1Cc1c(F)cccc1F [Compound 52, 5-(2,6-difluorobenzyl)-2-phenyl-2,5-dihydropyrazolo[3,4-d]pyrimidin-4-one]
199 to 201 °C | O=c1c2cn(-c3ccccc3)nc2ncn1Cc1ccccn1 [Compound 53, 5-(2-pyridinylmethyl)-2-phenyl-2,5-dihydropyrazolo[3,4-d]-pyrimidin-4-one]
176 to 177 °C | O=c1c2cn(Cc3ccccc3)nc2ncn1Cc1c(F)cccc1Cl [Compound 54, 5-(2-chloro-6-fluorobenzyl)-2-benzyl-2,5-dihydropyrazolo[3,4-d]pyrimidin-4-one]
167 to 169 °C | Cc1ccc(Cn2cnc3nn(Cc4ccccc4)cc3c2=O)cc1 [Compound 55, 5-(4-methylbenzyl)-2-benzyl-2,5-dihydropyrazolo[3,4-d]-pyrimidin-4-one]
173 to 174 °C | O=c1c2cn(Cc3ccccc3)nc2ncn1Cc1c(F)cccc1F [Compound 56, 5-(2,6-difluorobenzyl)-2-benzyl-2,5-dihydropyrazolo[3,4-d]pyrimidin-4-one]
182 to 184 °C | O=c1c2cn(Cc3ccccc3)nc2ncn1Cc1ccccn1 [Compound 57, 5-(2-pyridinylmethyl)-2-benzyl-2,5-dihydropyrazolo[3,4-d]-pyrimidin-4-one]
174 to 175 °C | O=c1c2cn(Cc3ccccn3)nc2ncn1Cc1c(F)cccc1F [Compound 59, 5-(2,6-difluorobenzyl)-2-pyridin-2-ylmethyl-2,5-dihydropyrazolo[3,4-d]pyrimidin-4-one]
222 to 224 °C | Cc1nc2n[nH]cc2c(=O)n1Cc1ccccc1Cl [Compound 61, 5-(2-chlorobenzyl)-6-methyl-2,5-dihydropyrazolo[3,4-d]-pyrimidin-4-one]
192 to 193 °C | Cc1nc2nn(C)cc2c(=O)n1Cc1ccccc1C(F)(F)F [Compound 63, 5-(2-trifluoromethylbenzyl)-2,6-dimethyl-2,5-dihydropyrazolo[3,4-d]pyrimidin-4-one]
